{"source": "patent US20260248763A1", "about": "(BIO GENUINE (SHANGHAI) BIOTECH CO., LTD, priority 2023, published 2026)"}
{"molecular_target": "T1, OTR (Homo sapiens, UniProt P30559)", "T1 construct": "expressed in transfected cells; host or cells: OTR/HEK293 stably transfected cell line", "T1 sequence (P30559 1-389)": "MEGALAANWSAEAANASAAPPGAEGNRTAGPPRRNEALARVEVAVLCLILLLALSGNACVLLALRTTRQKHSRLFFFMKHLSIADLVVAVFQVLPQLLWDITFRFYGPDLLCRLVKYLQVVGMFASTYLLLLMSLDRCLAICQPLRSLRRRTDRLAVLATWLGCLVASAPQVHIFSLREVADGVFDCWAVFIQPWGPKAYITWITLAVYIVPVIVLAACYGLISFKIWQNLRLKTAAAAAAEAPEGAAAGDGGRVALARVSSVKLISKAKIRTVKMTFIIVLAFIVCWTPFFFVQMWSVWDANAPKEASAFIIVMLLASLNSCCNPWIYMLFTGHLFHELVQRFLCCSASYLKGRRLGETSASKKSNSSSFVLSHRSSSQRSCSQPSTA", "assay": "Ca2+ mobilization in cells stably expressing OTR (FLIPR, antagonist mode)", "format": "cell-based", "settings": "OTR/HEK293 stably transfected cell line", "source_text": "Test Example 1. Determination of the Effect of the Compound of the Present Disclosure on Ca^2+ Mobilization in Cells Stably Expressing OTR\nTo measure the antagonistic effect of the compound of the present disclosure on OTR activity expressed in the OTR/HEK293 stably transfected cell line.\n• DMEM medium (Invitrogen, 11965) • F12 medium (Invitrogen, 11765) • Fetal bovine serum (Excell, FSP500) • Geneticin (Invitrogen, 10131) • Penicillin/Streptomycin (Invitrogen, SV30010) • Fluo-4 Direct kit (Invitrogen, F10471) • 384-well cell plate (Greiner, 781090) • 384-well compound plate (Greiner, 781280)\n• FLIPR instrument (Molecular Device) • EHCO instrument (Labcyte) • Cell counter (Beckman, Vi-cell XR)\nThe cultured cells were washed twice with pre-heated DPBS and digested with appropriate amount of trypsin at 37° C. for 1 minute, and then appropriate amount of culture medium was added to terminate digestion. The cells were centrifuged at 1000 rpm for 5 minutes. The supernatant was gently discarded without disturbing the cell pellet at the bottom. The cells were resuspended in culture medium and 1 mL was taken out for cell counting and viability assessment using Vi-CELL™. The cells were diluted to 1×10^6 cells/mL (20,000 cells/20 μL) with culture medium, seeded into a 384-well cell plate and incubated at 37° C. with 5% CO2 for 16-20 h.\nFormulation of 250 mM Probenecid solution: according to the kit instructions, 1 mL of FLIPR buffer salt solution was added to 77 mg of probenecid, prepared fresh just before use. Formulation of Fluo-4 Direct™ (2×, 8 μM) loading buffer: according to the kit instructions, the required amount of Fluo-4 Direct™ was taken out and thawed in advance, 10 mL of FLIPR buffer salt solution and 0.2 mL of 250 mM Probenecid solution were added to each tube, and the mixture was vortexed in the dark for >5 minutes, prepared fresh just before use.\nPreparation of agonist reference compound plate: the agonist was diluted 3-fold in 10 points using ECHO, and 750 nL was transferred to the corresponding compound plate using ECHO.\nPreparation of reference and test compound plates: the test compound was diluted 3-fold in 10 points with ECHO, and 900 nL was transferred to the corresponding compound plate; the reference compound was diluted 3-fold in 10 points with assay buffer salt solution, and 30 μL was transferred to the compound plate.\n30 μL of assay buffer salt solution was added to the corresponding compound plate, and the mixture was centrifuged at 1000 rpm for 1 minute.\nThe cell plate prepared the day before was taken out of the incubator, and 20 μL of 2×Fluo-4 Direct™ buffer was added to each well, with a total volume of 40 μL.\nThe plate was incubated in an incubator at 37° C. with 5% CO2 for 50 minutes, and then placed at room temperature for 10 minutes.\nThe compound plate, cell plate, and pipette tips were placed into the instrument.\nFor the agonist reference compound plate: the FLIPR instrument software was run, 10 μL of the pre-determined concentration of agonist reference compound was added to the cell plate following the preset protocol, and the fluorescence signal was read. After reading, the data were exported to calculate the EC80 for each cell line, and the agonist at 6×EC80 concentration was prepared.\nFor the compound plate: the FLIPR instrument software was run, 10 μL of the pre-determined concentration of test compound and the reference compound were added to the cell plate following the preset protocol, and the fluorescence signal was read. 10 μL of the reference compound agonist at 6×EC80 concentration was added to the cell plate, and the fluorescence signal was read. For antagonist detection of the compound, the data were exported using the “Max-Min” and “Read 1 to Maximum allowed” methods in the software, and the data were fitted using Prism.", "units": {"IC50": "nM"}}
{"smiles": "CO/N=C1/C[C@@H](CO)N(C(=O)c2ccc(-c3cccc(C)c3C)c(C(=O)N3CCOCC3)c2)C1", "note": "[Example A0158, (25, 4Z)-(2′, 3′-Dimethyl-2-(morpholine-4-carbonyl)-[1, 1′-biphenyl]-4-yl)(2-(hydroxymethyl)-4-(methoxyimino)pyrrolidin-1-yl)methanone]", "IC50": 1520}
{"smiles": "CO/N=C1/C[C@@H](CO)N(C(=O)c2ccc(-c3cccc(C#N)c3C)c3c2OCC(=O)N3C)C1", "note": "[Example A0163, (S, Z)-3-(8-(2-(Hydroxymethyl)-4-(methoxyimino)pyrrolidine-1-carbonyl)-4-methyl-3-oxo-3,4-dihydro-2H-benzo[b][1,4]oxazin-5-yl)-2-methylbenzonitrile]", "IC50": 202}
{"smiles": "COCCOc1cc(C(=O)N2C/C(=N\\OC)C[C@H]2CO)ccc1-c1cccc(C)c1C", "note": "[Example A0149, (S, Z)-(2-(Hydroxymethyl)-4-(methoxyimino)pyrrolidin-1-yl)(2-(2-methoxyethoxy)-2′, 3′-dimethyl-[1,1′-biphenyl]-4-yl)methanone]", "IC50": 17.1}
{"smiles": "CO/N=C1/C[C@@H](CO)N(C(=O)c2ccc(-c3cc(C#N)ccc3C)cc2)C1", "note": "[Example C0095, (S, Z)—4′-(2-(Hydroxymethyl)-4-(methoxyimino)pyrrolidine-1-carbonyl)-6-methyl-[1,1′-biphenyl]-3-carbonitrile]", "IC50": 1260}
{"smiles": "CNC(=O)[C@@H]1C/C(=N\\OC)CN1C(=O)c1ccc(-c2cccc(C#N)c2C)cc1", "note": "[Example A0232, (S, E)-1-(3′-Cyano-2′-methyl-[1,1′-biphenyl]-4-carbonyl)-4-(methoxyimino)-N-methylpyrrolidine-2-carboxamide]", "IC50": 394}
{"smiles": "CO/N=C1/C[C@@H](COCCO)N(C(=O)c2ccc(-c3ccccc3C)cc2)C1", "note": "[Example C0017, (S, Z)-(2-((2-Hydroxyethoxy)methyl)-4-(methoxyimino)pyrrolidin-1-yl)(2′-methyl-[1,1′-biphenyl]-4-yl)methanone]", "IC50": 140}
{"smiles": "CO/N=C1\\C[C@@H](CO)N(C(=O)c2ccc(-c3cccc(C)c3C)c(C(=O)NC3COC3)c2)C1", "note": "[Example A0179, (S, E)-4-(2-(Hydroxymethyl)-4-(methoxyimino)pyrrolidine-1-carbonyl)-2′, 3′-dimethyl-N-(oxetan-3-yl)-[1,1′-biphenyl]-2-carboxamide]", "IC50": 165}
{"smiles": "CO/N=C1\\C[C@@H](CO)N(C(=O)c2ccc(-c3cccc(C#N)c3C)cc2OC)C1", "note": "[Example A0245]", "IC50": 58.1}
{"smiles": "CO/N=C1/CC2(CO)CCC1N2C(=O)c1ccc(-c2ccccc2C)cc1", "note": "(single isomer, unassigned) [Example A0087]", "IC50": 1080}
{"smiles": "CO/N=C1/C[C@@H](CO)N(C(=O)c2ncc(-c3cccc(C)c3C)s2)C1", "note": "[Example C0097, (S, Z)-(5-(2,3-Dimethylphenyl)thiazol-2-yl)(2-(hydroxymethyl)-4-(methoxyimino)pyrrolidin-1-yl)methanone]", "IC50": 815}
{"smiles": "CON=C1C[C@@H](CNC(C)=O)N(C(=O)c2ccc(-c3ccccc3C)cc2)C1", "note": "(single isomer, unassigned) [Example C0006]", "IC50": 1740}
{"smiles": "CO/N=C1/C[C@@H](CO)N(C(=O)c2cc(OC)c(-c3cccc(C#N)c3C)cn2)C1", "note": "[Example A0216, 3-(6-[(2S, 4Z)-2-(Hydroxymethyl)-4-(methoxyimino)pyrrolidine-1-carbonyl]-4-methoxypyridin-3-yl)-2-methylbenzonitrile]", "IC50": 198}
{"smiles": "CON=C1CC(C(=O)NCC(O)c2ccccc2)N(C(=O)c2ccc(-c3cccc(C#N)c3C)cc2)C1", "note": "(single isomer, unassigned) [Example A0233, (25, Z)-1-(3′-Cyano-2′-methyl-[1,1′-biphenyl]-4-carbonyl)-N-(2-hydroxy-2-phenethyl)-4-(methoxyimino)pyrrolidine-2-carboxamide]", "IC50": 48.3}
{"smiles": "CO/N=C1/C[C@@H](CO)N(C(=O)c2cnc(-c3ccccc3C)cn2)C1", "note": "[Example C0013, (S, Z)-(2-(Hydroxymethyl)-4-(methoxyimino)pyrrolidin-1-yl)(5-(o-tolyl)pyrazin-2-yl)methanone]", "IC50": 853}
{"smiles": "CO/N=C1/C[C@@H](CO)N(C(=O)c2ccc(-c3c(F)ccc(C#N)c3C)c3c2OCO3)C1", "note": "[Example C0139, 4-Fluoro-3-(7-((S,Z)-2-(hydroxymethyl)-4-(methoxyimino)pyrrolidine-1-carbonyl)benzo[d][1,3]dioxol-4-yl)-2-methylbenzonitrile]", "IC50": 40.5}
{"smiles": "CON=C1C[C@@H](C2(O)CC2)N(C(=O)c2ccc(-c3ccccc3C)cc2)C1", "note": "[Example A0066, (S, EZ)-(2-(1-Hydroxycyclopropyl)-4-(methoxyimino)pyrrolidin-1-yl)(2′-methyl-[1,1′-biphenyl]-4-yl)methanone]", "IC50": 197}
{"smiles": "CO/N=C1/C[C@@H](CO)N(C(=O)c2ncc(-c3cccc(C)c3C)cc2OC)C1", "note": "[Example C0081, (S, Z)-(5-(2,3-Dimethylphenyl)-3-methoxypyridin-2-yl)(2-(hydroxymethyl)-4-(methoxyimino)pyrrolidin-1-yl)methanone]", "IC50": 129}
{"smiles": "CO/N=C1/C[C@@H](CO)N(C(=O)c2ccc(-c3cccc(C#N)c3C)c(C3(O)COC3)c2)C1", "note": "[Example A0183, 3-(4-[(2S, 4Z)-2-(Hydroxymethyl)-4-(methoxyimino)pyrrolidine-1-carbonyl]-2-(3-hydroxyoxetan-3-yl)phenyl)-2-methylbenzonitrile]", "IC50": 1480}
{"smiles": "CO/N=C1\\C[C@@H](C(C)(C)O)N(C(=O)c2ccc(-c3cccc(C#N)c3C)cc2)C1", "note": "[Example C0163, (S,E)-4′-(2-(2-Hydroxypropan-2-yl)-4-(methoxyimino)pyrrolidine-1-carbonyl)-2-methyl-[1,1′-biphenyl]-3-carbonitrile]", "IC50": 72}
{"smiles": "CO/N=C1/C[C@@H](CO)N(C(=O)c2ccc(-c3ccccc3C)cn2)C1", "note": "[Example C0015, (S, Z)-(2-(Hydroxymethyl)-4-(methoxyimino)pyrrolidin-1-yl)(5-(o-tolyl)pyridin-2-yl)methanone]", "IC50": 888}
{"smiles": "CO/N=C1/C[C@@H](CO)N(C(=O)c2ccc(-c3ccc(C#N)cc3C)cc2)C1", "note": "(single isomer, unassigned) [Example C0093]", "IC50": 1140}
{"smiles": "CO/N=C1\\C[C@@H](CO)N(C(=O)c2ccc(-c3cccc(C)c3C#N)cc2)C1", "note": "[Example A0144, (S, E)-4′-(2-(Hydroxymethyl)-4-(methoxyimino)pyrrolidine-1-carbonyl)-3-methyl-[1,1′-biphenyl]-2-carbonitrile]", "IC50": 1110}
{"smiles": "CO/N=C1/C[C@@H](CO)N(C(=O)c2ccc3c(c2)OCCc2c(C#N)cccc2-3)C1", "note": "[Example C0146, (S, Z)-3-(2-(Hydroxymethyl)-4-(methoxyimino)pyrrolidine-1-carbonyl)-6,7-dihydrodibenzo[b,d]oxepine-8-carbonitrile]", "IC50": 228}
{"smiles": "CO/N=C1/C[C@@H](CO)N(C(=O)c2ccc(-c3cccc(C)c3C)cc2C#N)C1", "note": "[Example A0131, 5-(2,3-Dimethylphenyl)-2-[(2S, 4Z)-2-(hydroxymethyl)-4-(methoxyimino)pyrrolidine-1-carbonyl]benzonitrile]", "IC50": 172}
{"smiles": "CO/N=C1\\C[C@@H](COCCO)N(C(=O)c2ccc(-c3ccccc3C)cc2)C1", "note": "[Example C0018, (S, E)-(2-((2-Hydroxyethoxy)methyl)-4-(methoxyimino)pyrrolidin-1-yl)(2′-methyl-[1,1′-biphenyl]-4-yl)methanone]", "IC50": 545}
